Test results from patent publication US8952024B2, “Herbicidal pyrimidone derivatives” (E I du Pont de Nemours and Company, priority 2009, dated 2015).

Legend:
Test in all cases: Test B pre-/postemergence plant response
Format in all cases: in vivo
[1] = tested on: downy bromegrass (Bromus tectorum)
Method in brief: (§1)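 Pre-em in loam/sand; post-em at 1–4 leaf (2–18 cm) in peat mix. Solvent + surfactant formulation. Greenhouse 13–15 d; visual % control vs untreated, 0–100.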

[2] = tested on: giant foxtail (Setaria faberii)
Method in brief: as §1

[3] = tested on: goosegrass (Eleusine indica)
Method in brief: as §1

[4] = tested on: green foxtail (Setaria viridis)
Method in brief: as §1

[5] = tested on: johnsongrass (Sorghum halepense)
Method in brief: as §1

kochia (Kochia scoparia) = conditions: Postemergence; for Plant response rating, Kochia: scale 0 (no effect) to 100 (complete control); for Kochia plant response rating: 250 g ai/ha, scale 0 to 100
Method in brief: as §1

[6] = tested on: lambsquarters (Chenopodium album)
Method in brief: as §1

[7] = tested on: large crabgrass (Digitaria sanguinalis)
Method in brief: as §1

[8] = tested on: pigweed (Amaranthus retroflexus)
Method in brief: as §1

[9] = tested on: velvetleaf (Abutilon theophrasti)
Method in brief: as §1

[10] = tested on: wheat (Triticum aestivum)
Method in brief: as §1

[11] = tested on: woolly cupgrass (Eriochloa villosa)
Method in brief: as §1

[12] = tested on: yellow nutsedge (Cyperus esculentus)
Method in brief: as §1

[13] = 250 g ai/ha, Preemergence, 0 to 100 scale
[14] = Postemergence, 31 g ai/ha, scale 0 to 100 (0 no effect, 100 complete control)
[15] = Postemergence, 62 g ai/ha, scale 0 (no effect) to 100 (complete control), 13 to 15 days
[16] = Postemergence, 125 g ai/ha, visual rating after 13 to 15 days, scale 0 (no effect) to 100 (complete control)
[17] = Postemergence, 250 g ai/ha, scale 0 to 100
[18] = Preemergence, 31 g ai/ha, scale 0 to 100 (0 no effect, 100 complete control)
[19] = Preemergence, 62 g ai/ha, scale 0 to 100 (0 no effect, 100 complete control)
[20] = Preemergence, 125 g ai/ha, 0 to 100 scale
[21] = 125 g ai/ha, visual rating after 13 to 15 days

Cc1cc(C)cc(-n2c(-c3ccccc3)ncc(C(=O)C3=C(O)CCCC3=O)c2=O)c1 [Compound 33]
65: Plant response rating, Cupgrass, Woolly [11, 14] | Plant response rating, Cupgrass, Woolly [11, 15]
35: Plant response rating, Johnsongrass [5, 15] | Plant response rating, Johnsongrass [5, 16]
80: Plant response rating, Foxtail, Giant [2, 15] | Plant response rating, Goosegrass [3, 18] | Plant response rating, Kochia (kochia (Kochia scoparia); 62 g ai/ha, 13 to 15 days) | Plant response rating, Velvetleaf [9, 18]
85: Plant response rating, Foxtail, Giant [2, 16] | Plant response rating, Goosegrass [3, 16] | Goosegrass plant response rating [3, 17] | Plant response rating, Foxtail, Green [4, 15] | Plant response rating, Crabgrass, Large [7, 15] | Plant response rating, Crabgrass, Large [7, 18] | Plant response rating, Cupgrass, Woolly [11, 13]
0: Plant response rating, Bromegrass, Downy [1, 18] | Plant response rating, Bromegrass, Downy [1, 19] | Plant response rating, Foxtail, Green [4, 18] | Plant response rating, Johnsongrass [5, 18] | Plant response rating, Johnsongrass [5, 19] | Johnsongrass plant response rating [5, 20] | Plant response rating, Wheat [10, 15] | Plant response rating, Wheat [10, 18] | Plant response rating, Wheat [10, 19] | Wheat plant response rating [10, 20] | Plant response rating, Nutsedge, Yellow [12, 18]
75: Plant response rating, Foxtail, Giant [2, 14] | Plant response rating, Goosegrass [3, 15] | Plant response rating, Crabgrass, Large [7, 14] | Plant response rating, Nutsedge, Yellow [12, 16]
98: Plant response rating, Foxtail, Giant [2, 13] | Plant response rating, Goosegrass [3, 13] | Kochia plant response rating (kochia (Kochia scoparia)) | Plant response rating, Lambsquarters [6, 15] | Plant response rating, Lambsquarters [6, 16] | Plant response rating, Lambsquarters [6, 18] | Crabgrass, Large plant response rating [7, 17] | Plant response rating, Crabgrass, Large [7, 19] | Plant response rating, Pigweed [8, 16] | Plant response rating, Velvetleaf [9, 16]
60: Cupgrass, Woolly plant response rating [11, 20]
100: Plant response rating, Foxtail, Green [4, 13] | Foxtail, Green plant response rating [4, 20] | Plant response rating, Lambsquarters [6, 13] | Lambsquarters plant response rating [6, 17] | Plant response rating, Lambsquarters [6, 19] | Lambsquarters plant response rating [6, 20] | Plant response rating, Crabgrass, Large [7, 13] | Crabgrass, Large plant response rating [7, 20] | Plant response rating, Pigweed [8, 13] | Plant response rating, Pigweed [8, 18] | Plant response rating, Pigweed [8, 19] | Pigweed plant response rating [8, 20] | Plant response rating, Velvetleaf [9, 13] | Velvetleaf plant response rating [9, 20]
40: Johnsongrass plant response rating [5, 17]
45: Plant response rating, Foxtail, Giant [2, 19] | Plant response rating, Foxtail, Green [4, 19] | Plant response rating, Nutsedge, Yellow [12, 19]
90: Goosegrass plant response rating [3, 20] | Plant response rating, Foxtail, Green [4, 16] | Foxtail, Green plant response rating [4, 17] | Plant response rating, Crabgrass, Large [7, 16] | Plant response rating, Velvetleaf [9, 15] | Plant response rating, Velvetleaf [9, 19] | Cupgrass, Woolly plant response rating [11, 17] | Plant response rating, Nutsedge, Yellow [12, 13]
50: Plant response rating, Foxtail, Green [4, 14] | Plant response rating, Cupgrass, Woolly [11, 19] | Plant response rating, Nutsedge, Yellow [12, 15]
10: Plant response rating, Bromegrass, Downy [1, 16] | Plant response rating, Foxtail, Giant [2, 18] | Plant response rating, Cupgrass, Woolly [11, 18]
5: Plant response rating, Bromegrass, Downy [1, 14] | Plant response rating, Bromegrass, Downy [1, 15] | Bromegrass, Downy plant response rating [1, 20] | Plant response rating, Wheat [10, 13] | Plant response rating, Wheat [10, 16]
95: Foxtail, Giant plant response rating [2, 17] | Foxtail, Giant plant response rating [2, 20] | Plant response rating, Kochia (kochia (Kochia scoparia); [21]) | Plant response rating, Pigweed [8, 15]
30: Plant response rating, Bromegrass, Downy [1, 13]
20: Bromegrass, Downy plant response rating [1, 17] | Plant response rating, Johnsongrass [5, 13]
70: Plant response rating, Cupgrass, Woolly [11, 16] | Nutsedge, Yellow plant response rating [12, 20]

Cc1ccccc1-n1c(-c2cccc(Cl)c2)ncc(C(=O)C2=C(O)CCCC2=O)c1=O [Compound 36]
80: Plant response rating, Foxtail, Giant [2, 13] | Plant response rating, Foxtail, Green [4, 19] | Johnsongrass plant response rating [5, 20]
65: Bromegrass, Downy plant response rating [1, 17] | Foxtail, Giant plant response rating [2, 20] | Plant response rating, Johnsongrass [5, 19] | Kochia plant response rating (kochia (Kochia scoparia)) | Plant response rating, Velvetleaf [9, 18] | Plant response rating, Cupgrass, Woolly [11, 13]
98: Plant response rating, Foxtail, Giant [2, 16] | Foxtail, Giant plant response rating [2, 17] | Plant response rating, Lambsquarters [6, 18] | Crabgrass, Large plant response rating [7, 17] | Cupgrass, Woolly plant response rating [11, 17]
75: Plant response rating, Johnsongrass [5, 15] | Plant response rating, Nutsedge, Yellow [12, 13]
20: Plant response rating, Foxtail, Giant [2, 19] | Plant response rating, Crabgrass, Large [7, 18] | Plant response rating, Nutsedge, Yellow [12, 15]
100: Plant response rating, Goosegrass [3, 13] | Johnsongrass plant response rating [5, 17] | Plant response rating, Lambsquarters [6, 13] | Plant response rating, Lambsquarters [6, 15] | Plant response rating, Lambsquarters [6, 16] | Lambsquarters plant response rating [6, 17] | Plant response rating, Lambsquarters [6, 19] | Lambsquarters plant response rating [6, 20] | Plant response rating, Crabgrass, Large [7, 13] | Crabgrass, Large plant response rating [7, 20] | Plant response rating, Pigweed [8, 13] | Plant response rating, Pigweed [8, 18] | Pigweed plant response rating [8, 20] | Plant response rating, Velvetleaf [9, 13] | Plant response rating, Velvetleaf [9, 15] | Plant response rating, Velvetleaf [9, 16] | Velvetleaf plant response rating [9, 20]
95: Plant response rating, Foxtail, Giant [2, 14] | Plant response rating, Foxtail, Giant [2, 15] | Goosegrass plant response rating [3, 17] | Goosegrass plant response rating [3, 20] | Plant response rating, Crabgrass, Large [7, 15] | Plant response rating, Crabgrass, Large [7, 16] | Plant response rating, Cupgrass, Woolly [11, 16]
10: Plant response rating, Bromegrass, Downy [1, 13] | Plant response rating, Foxtail, Giant [2, 18] | Cupgrass, Woolly plant response rating [11, 20]
45: Plant response rating, Bromegrass, Downy [1, 16]
30: Plant response rating, Bromegrass, Downy [1, 14] | Plant response rating, Bromegrass, Downy [1, 15]
85: Plant response rating, Goosegrass [3, 15] | Plant response rating, Foxtail, Green [4, 13] | Plant response rating, Foxtail, Green [4, 14] | Foxtail, Green plant response rating [4, 20] | Plant response rating, Johnsongrass [5, 13] | Plant response rating, Johnsongrass [5, 16] | Plant response rating, Pigweed [8, 15] | Plant response rating, Cupgrass, Woolly [11, 14]
60: Plant response rating, Kochia (kochia (Kochia scoparia); [21])
5: Plant response rating, Wheat [10, 15] | Plant response rating, Wheat [10, 16]
90: Plant response rating, Goosegrass [3, 16] | Plant response rating, Foxtail, Green [4, 15] | Plant response rating, Foxtail, Green [4, 16] | Foxtail, Green plant response rating [4, 17] | Plant response rating, Crabgrass, Large [7, 14] | Plant response rating, Crabgrass, Large [7, 19] | Plant response rating, Pigweed [8, 16] | Plant response rating, Cupgrass, Woolly [11, 15]
0: Plant response rating, Bromegrass, Downy [1, 18] | Plant response rating, Bromegrass, Downy [1, 19] | Bromegrass, Downy plant response rating [1, 20] | Plant response rating, Goosegrass [3, 18] | Plant response rating, Johnsongrass [5, 18] | Plant response rating, Kochia (kochia (Kochia scoparia); 62 g ai/ha, 13 to 15 days) | Plant response rating, Wheat [10, 13] | Plant response rating, Wheat [10, 18] | Wheat plant response rating [10, 20] | Plant response rating, Cupgrass, Woolly [11, 18] | Plant response rating, Cupgrass, Woolly [11, 19] | Plant response rating, Nutsedge, Yellow [12, 18]
35: Plant response rating, Foxtail, Green [4, 18]
40: Nutsedge, Yellow plant response rating [12, 20]
25: Plant response rating, Nutsedge, Yellow [12, 16]
